From patent US20170035011A1, “METHODS OF IMPROVING GERMINATION OF PLANT EMBRYOS” (WEYERHAEUSER NR COMPANY, priority 2015, published 2017)

Columns and labels:
loblolly pine embryos = experiment: Germination and germinant organ lengths of resulting embryos, Example 2; format: in vivo
From the text: As used herein, the term “germination” refers to a physiological process that results in the elongation and growth of a plant embryo organs (root, hypocotyls, cotyledons) and initiation of leaves (epicotyl by the shoot apex located at the base of the cotyledons) after 1 week in the dark followed by 6 weeks in a light room at room temperature.
As used herein, the term “category 1” germination is defined by presence of a minimum of a 3 mm root, and a tuft of at least 5 epicotyl leaves, each approximately 5 mm long.
“Category 2” germination is defined as for category 1, but where epicotyls leaf presence is observed, but not meeting the 5 leaves by 5 mm length specification.
Several parameters may be measured to determine the quality of the germinants, such as root, hypocotyl, longest cotyledon leaf length, and epicotyls leaf length. […]
The responses analyzed for this report are the weekly growth, embryos per d-frame, category 1 germination, and for category 1+2: germination, germinants per d-frame, root length, the hypocotyl length, and the epicotyl length.
The proportion responses are analyzed using a generalized linear model with a logit link and binomial distribution after categorizing as a 0/1 response. The continuous responses were analyzed with a mixed linear model after taking the log transformation to account for increasing variability with higher means. […]

manufactured seed = experiment: Root initiation with palatinose in synthetic gametophyte of manufactured seed; format: in vivo; details: palatinose from 0 to 40 g/l in 20 g/l increments; base sugar sucrose or glucose
From the text: The beneficial properties of palatinose are not limited to multiplication. The addition of palatinose to the synthetic gametophyte of manufactured seed has benefits for root initiation. […] This is true when the base sugar was sucrose or glucose.

loblolly pine SE = experiment: Development stage studies with palatinose in maltose and glucose media; format: cell-based; details: standard maltose and glucose media
From the text: In loblolly pine SE studies, palatinose was initially used as a non-metabolizable sugar for supplementing osmotic level. […] When used as a part of liquid multiplication media its effect depended on the sugar moieties it was associated with, and its ratio with those moieties. When paired with maltose alone, growth was largely or completely halted depending on sugar ratio, whereas when used with glucose, growth was like control (maltose only).

Row | Structure (SMILES) | category 1 germination percentage (loblolly pine embryos; combining the outcomes of 3, 5, and 7 weeks of treatment) [%] | root presence (manufactured seed) | embryo formation (loblolly pine SE) | Category 1 germination (loblolly pine embryos; Table 7 comparison)
1 | O=C(CO)[C@@H](O)[C@H](O)[C@H](O)CO[C@H]1O[C@H](CO)[C@@H](O)[C@H](O)[C@H]1O [palatinose, 6-O-α-d-glucopyranosyl-D-fructose] | 9.1 | root presence improved | inhibited embryo formation | 
2 | OC[C@H]1O[C@H](O[C@H]2O[C@H](CO)[C@@H](O)[C@H](O)[C@H]2O)[C@H](O)[C@@H](O)[C@@H]1O [trehalose] |  |  |  | no evidence that adding trehalose had an effect
